Where a SMILES comes first, the peptide text is derived from it.
Legend:
[1] = tested on: T cells that produce interferon gamma (IFN-γ) antigen-specifically; assay: ELISPOT (IFN-γ) with splenocytes of immunized mouse; format: in vivo, HHD mouse; details: for IFN-γ production due to the stimulation with each peptide: immunogenicity of each peptide in each pool, FIG. 2
[2] = tested on: RMA-HHD target cells pulsed with peptide; details: for CTL cytotoxicity to target cell presenting each peptide: immunogenicity of each peptide in each pool, FIG. 2; for CTL cytotoxicity to target cell presenting each peptide / induction of cytotoxic T cells: 51Cr release; for induction of cytotoxic T cells: peptide-bound liposome prepared from the single peptide, FIG. 3
[3] = tested on: recombinant vaccinia virus that expresses HCV-NS3 gene (VV-NS3); design: species or system HHD mouse; details: mouse, in vivo
[4] = immunization with recombinant virus VV-NS3, ELISPOT, FIG. 7

Row | Compound | IFN-γ production due to the stimulation with each peptide ([1]; ELISPOT) | CTL cytotoxicity to target cell presenting each peptide [2] | vaccine effect of peptide-bound liposome prepared from single peptide [3] | induction of cytotoxic T cells [2] | further results
1 | CSCC[C@H](NC(=O)[C@@H](N)Cc1ccc(O)cc1)C(=O)N[C@@H](CC(N)=O)C(=O)N[C@H](C(=O)N1CCC[C@H]1C(=O)NCC(=O)N[C@@H](CC(C)C)C(=O)N1CCC[C@H]1C(=O)N[C@H](C(=O)O)C(C)C)[C@@H](C)O [peptide #3, Tyr Met Asn Thr Pro Gly Leu Pro Val] (H-YMNTPGLPV-OH) | confirmed | strongly induced antigen-specific CTL | remarkable vaccine effect | – | immunogenicity of liposome-bound peptide ([1]; F1 mouse (HHD male x C57BL/6 female) expressing HLA-A*0201 and H-2b, ELISPOT, FIG. 5): high immunogenicity of the same level as that of mouse epitope 1630-1637; boost effect on immunization with VV-NS3 [1, 4]: absent; immunogenicity of peptide on immunization with VV-NS3 [1, 4]: not exhibited; immunogenicity of peptide on immunization with whole NS3 ([1]; immunization with recombinant viruses Adex1CA3269 and VV-NS3, peptide not liposome-bound, FIG. 6): low immunogenicity and low; IFN-γ production ([1]; peptide-bound liposome prepared from the single peptide, ELISPOT, FIG. 3): particularly remarkable
2 | IMACMSADL (Hepatitis C virus) [#19-3A] | – | – | – | – | vaccine effect, comparison of #19 and #19-3A bound to liposome ([2]; liposome inoculated twice, FIG. 11): higher vaccine effect
3 | CSCC[C@H](NC(=O)CN)C(=O)N[C@@H](Cc1ccccc1)C(=O)N[C@@H](CC(=O)O)C(=O)N[C@@H](CO)C(=O)N[C@@H](CO)C(=O)N[C@H](C(=O)N[C@@H](CC(C)C)C(=O)N[C@@H](CS)C(=O)O)C(C)C [peptide #13, Gly Met Phe Asp Ser Ser Val Leu Cys] (H-GMFDSSVLC-OH) | confirmed | strongly induced antigen-specific CTL | remarkable vaccine effect | confirmed | –
4 | CC[C@H](C)[C@H](NC(=O)[C@@H](NC(=O)[C@H](CO)NC(=O)[C@@H](NC(=O)[C@H](CC(=O)O)NC(=O)[C@H](CC(C)C)NC(=O)CN)C(C)C)C(C)C)C(=O)N1CCC[C@H]1C(=O)N[C@H](C(=O)O)[C@@H](C)O [compound 14, Gly Leu Asp Val Ser Val Ile Pro Thr] (H-GLDVSVIPT-OH) | confirmed | strongly induced antigen-specific CTL | – | – | –
5 | CC[C@H](C)[C@H](NC(=O)[C@H](CS)NC(=O)[C@@H](NC(=O)[C@H](C)NC(=O)[C@H](CC(C)C)NC(=O)[C@@H](N)Cc1ccccc1)[C@@H](C)O)C(=O)N[C@@H](CC(N)=O)C(=O)NCC(=O)N[C@H](C(=O)O)C(C)C [compound 23, Phe Leu Ala Thr Cys Ile Asn Gly Val] (H-FLATCINGV-OH) | confirmed | strongly induced antigen-specific CTL | – | confirmed | –
6 | cys Met Ser Ala Asp Leu Glu Val Val (CMSADLEVV; Hepatitis C virus) [compound 17] | confirmed | strongly induced antigen-specific CTL | – | confirmed | –
7 | CC[C@H](C)[C@H](NC(=O)[C@H](CC(C)C)NC(=O)[C@H](CS)NC(=O)[C@H](CCCCN)NC(=O)[C@H](Cc1c[nH]c2ccccc12)NC(=O)[C@H](CCSC)NC(=O)[C@@H](N)CCC(N)=O)C(=O)N[C@@H](CCCNC(=N)N)C(=O)N[C@@H](CC(C)C)C(=O)O [compound 8, Gln Met Trp Lys Cys Leu Ile Arg Leu] | – | strongly induced antigen-specific CTL | – | – | –
8 | CC[C@H](C)[C@H](N)C(=O)N[C@@H](CCSC)C(=O)N[C@H](C(=O)N[C@@H](CS)C(=O)N[C@@H](CCSC)C(=O)N[C@@H](CO)C(=O)N[C@@H](C)C(=O)N[C@@H](CC(=O)O)C(=O)N[C@@H](CC(C)C)C(=O)O)[C@@H](C)O [peptide #19, Ile Met Thr Cys Met Ser Ala Asp Leu] (H-IMTCMSADL-OH) | confirmed | strongly induced antigen-specific CTL | remarkable vaccine effect | – | –
